In US20170151373A1, “ANTIMICROBIAL SOLUTIONS WITH ENHANCED STABILITY” (Board of Regents, The University of Texas System, priority 2015, published 2017):
Where two headings read alike, the source gives them in different places.

Key:
[1] = pH measurement of solutions (pH meter); type: physicochemical
Procedure: A solution containing disodium EDTA that was pH adjusted using base was prepare by the following method: • 1. Weigh out 300 mg disodium EDTA powder in 30 ml vial, and dissolve in 9.3 mL sterile water. Shake EDTA and sterile water until completely dissolved. QS to 10 ml with water. […] Measure pH, Add 1M NaOH recording volume added and remeasure pH.
A solution containing tetrasodium EDTA pH adjusted with disodium EDTA was prepared by the following method: • 1. Weigh out 300 mg disodium EDTA powder in 30 ml vial, and dissolve in 9.3 mL sterile water. Shake EDTA and sterile water until completely dissolved. QS to 10 ml with water. […] Weigh out 300 mg tetrasodium EDTA powder in 30 ml vial, and dissolve in 9.3 mL sterile water. Shake EDTA and sterile water until completely dissolved. QS to 10 ml with water. […] Measure pH of tetrasodium EDTA and add disodium EDTA recording volume added and pH after each addition • The following solutions were produced:
7. Prepare 19 syringes with 1 mL in each syringe. (1-3 mL sterile syringe can be used) Label the syringes and protect from light. • The pH from seven syringes, sampled randomly, were measured using a pH meter.

[2] = cited from earlier work; for fraction of EDTA that is tetravalent: 0.1 Molar (Harris 2010)

O=C([O-])CN(CCN(CC(=O)O)CC(=O)O)CC(=O)[O-].[Na+].[Na+] [3% disodium EDTA, Ethylenediamine-N,N,N′,N′,-tetraacetic acid, disodium salt]
pH ([1]; 10 ml 3% disodium EDTA, total volume 1M NaOH added 0): 4.5
pH ([1]; 10 ml 3% disodium EDTA, total volume 1M NaOH added 0.5 ml): 4.9
pH ([1]; 10 ml 3% disodium EDTA, total volume 1M NaOH added 1.0 ml): 5.4
pH ([1]; 10 ml 3% disodium EDTA, total volume 1M NaOH added 1.5 ml): 6.9
pH ([1]; 10 ml 3% disodium EDTA, total volume 1M NaOH added 1.7 ml): 7.4

O=C([O-])CN(CCN(CC(=O)[O-])CC(=O)[O-])CC(=O)[O-].[Na+].[Na+].[Na+].[Na+] [3% tetrasodium EDTA, Ethylenediamine-N,N,N′,N′-tetraacetic acid, tetrasodium salt]
pH ([1]; 5 ml 3% tetrasodium EDTA, total volume 3% disodium EDTA added 0): 10.9
pH ([1]; 5 ml 3% tetrasodium EDTA, total volume 3% disodium EDTA added 1 ml): 10.2
pH ([1]; 5 ml 3% tetrasodium EDTA, total volume 3% disodium EDTA added 2 ml): 9.5
pH ([1]; 5 ml 3% tetrasodium EDTA, total volume 3% disodium EDTA added 3 ml): 9.0
pH ([1]; 5 ml 3% tetrasodium EDTA, total volume 3% disodium EDTA added 4 ml): 8.8
pH ([1]; 5 ml 3% tetrasodium EDTA, total volume 3% disodium EDTA added 5 ml): 8.1
pH ([1]; 5 ml 3% tetrasodium EDTA, total volume 3% disodium EDTA added 6 ml): 7.1

O=C([O-])CN(CCN(CC(=O)[O-])CC(=O)O)CC(=O)[O-].[Na+].[Na+].[Na+] [Trisodium EDTA, Ethylenediamine-N,N,N′,N′,-tetraacetic acid, trisodium salt]
pH ([2]; vendor product (Dissolvine NA3-36)): 9.5

O=C(O)CN(CCN(CC(=O)O)CC(=O)O)CC(=O)O [pure tetra-acid EDTA, Ethylenediamine-N,N,N′,N′,-tetraacetic acid]
fraction of EDTA that is tetravalent ([2]; pH 6, 20 degrees Celsius): about 0.000018
fraction of EDTA that is tetravalent ([2]; pH 8, 20 degrees Celsius): about 0.0042
pH ([1]; in water/ethanol, Example 1): 3.1
